Values of other authors in patent US20110166946A1, “METHOD OF PROMOTING AND SELLING COFFEE” (NESTEC S.A., priority 2008, published 2011).

Legend:
[1] = after 50 μM chlorogenic acid intestinal perfusion, rat
[2] = preclinical models
[3] = in vivo

| isoferulic acid detected in plasma [1] [µM] | time of appearance of conjugated forms of CA in plasma after ingestion [2] [min] | SMILES | time of appearance in blood after ingestion [3] [min] | time to reach baseline level after ingestion [3] [h] |
| --- | --- | --- | --- | --- |
| 0.12 | 30 | O=C(/C=C/c1ccc(O)c(O)c1)O[C@@H]1C[C@](O)(C(=O)O)C[C@@H](O)[C@H]1O [chlorogenic acid, 5-caffeoylquinic acid] | – | – |
| – | – | Oc1cc(O)c2c(c1)O[C@H](c1cc(O)c(O)c(O)c1)[C@H](O)C2 [EGC, (−)-Epigallocatechin] | ≤ 30 | ≤ 12 |
